Results as given in US20240228556A9, “NOVEL CANINE ODORANT BINDING PROTEINS” (SPECIALITES PET FOOD, priority 2021, published 2024).
Numbering of substitutions follows the chain as printed. Values belong to the compound of their own block, whether it stands above or below them.

What was measured:
[1] = target: T1, CfamOBP2 (Canis lupus familiaris, UniProt O18874); experiment: Fluorescence competitive binding assay (NPN displacement); conditions: 2 μM OBP, 4 μM NPN, 20° C., pH 7.5, odorant 0.5-20 μM
T1 construct: His tag (from pQE31 vector) (N); made in house; host or cells: E. coli M15 (plasmid pQE31)
T1 sequence (O18874 19-180): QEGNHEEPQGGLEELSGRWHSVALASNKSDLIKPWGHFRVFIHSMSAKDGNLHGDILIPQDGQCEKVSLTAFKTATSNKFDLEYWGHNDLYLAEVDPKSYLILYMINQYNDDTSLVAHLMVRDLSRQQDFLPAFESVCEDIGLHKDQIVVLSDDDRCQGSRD
Procedure: (§1) Binding experiments were performed at 20° C. on a spectrofluorometer (Cary-Eclipse (Agilent, USA)) equipped with magnetic stirrers and a Peltier control temperature unit. The fluorescent probes: 1-N-phenylnaphthylamine (NPN) (Sigma, USA), 8-anilinonaphthalene-1-sulfonic acid (1,8-ANS) (Sigma, USA), and SYPRO™ orange (ThermoFischer, France) were excited at 337 nm, 372 nm and 490 nm respectively. Emission spectra were recorded between 350 and 500 nm for NPN; 400 and 600 nm for 1,8-ANS and 510 and 700 nm for SYPRO orange. Fluorescent probe binding experiments were performed in a 2 mL cuvette of 1 cm path length containing 2 μM OBPs in 50 mM potassium phosphate buffer at pH 7.5. The fluorescent probes were prepared in 100% MeOH at 0.1, 1, 10 and 100 mM. The concentration of the different fluorescent probes was increased into the 1 mL solution containing CfamOBPs until the adding allow to reach a fluorescence maximum of emission intensity. The binding curves were then traced using SigmaPlot 12.5 software.
(§2) Ligand competitive binding experiments were performed in cuvettes containing 2 μM OBPs, 10 μM fluorescent probe for CfamOBP1 and its variant (Seq ID No 14) and CfamOBP3, 4 μM fluorescent probe for CfamOBP2 and its variant (Seq ID No 15) and 1.25× fluorescent probe for CfamOBP4, in 50 mM potassium phosphate buffer at pH 7.5.
(§3) Odorants were prepared in 100% MeOH and aliquots were added to final concentrations of 0.5-20 μM. The experiments were performed in triplicate. The obtained data were then traced and analysed using SigmaPlot 12.5 software.

[2] = target: T2, CfamOBP2-K83 (variant of Seq ID No 15) (Canis lupus familiaris, UniProt O18874, E83K); experiment: as above; conditions: 2 μM OBP, 4 μM NPN, 20° C., pH 7.5, odorant 0.5-20 μM
T2 construct: His tag (from pQE31 vector) (N); made in house; host or cells: E. coli M15 (plasmid pQE31)
T2 sequence (O18874 19-180 E83K): T1 sequence (O18874 19-180) with E65K
Procedure: as §1, §2, §3

[3] = target: T3, CfamOBP3 (Canis lupus familiaris, UniProt H2B3G5); experiment: as above; conditions: 2 μM OBP, 10 μM NPN, 20° C., pH 7.5, odorant 0.5-20 μM
T3 construct: His tag (from pQE31 vector) (N); made in house; host or cells: E. coli M15 (plasmid pQE31)
T3 sequence (H2B3G5 16-190): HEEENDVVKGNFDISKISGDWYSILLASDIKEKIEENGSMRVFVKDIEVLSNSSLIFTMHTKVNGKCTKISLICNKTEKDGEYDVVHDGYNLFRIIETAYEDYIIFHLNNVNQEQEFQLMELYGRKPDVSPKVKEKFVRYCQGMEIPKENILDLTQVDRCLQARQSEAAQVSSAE
Procedure: as §1, §2, §3

[4] = target: T4, CfamOBP3-102Y (mutant of Seq ID No 35) (Canis lupus familiaris, UniProt H2B3G5, H102Y); experiment: Isothermal titration calorimetry; format: binding; conditions: ITC at 25° C., 25 μM protein, 250 μM odorant, pH 7.5; mutant compared with CfamOBP3
T4 construct: His tag (MRGSHHHHHH leader of pQE31, then TDP from the BamHI site) (N); made in house; host or cells: E. coli M15 (plasmid pQE31)
T4 sequence (H2B3G5 16-190 H102Y): T3 sequence (H2B3G5 16-190) with H87Y
Procedure: Titration experiments were carried at 25° C. using isothermal titration microcalorimeter VP-ITC system (Malvern Instruments, Malvern, UK). 100 mM odorant solution in MeOH were diluted to 250 μM into 100 mM potassium phosphate buffer, pH 7.5 and loaded into the syringe. Protein solutions were prepared at 25 μM in the phosphate buffer and degassed directly prior to experiment and injected into the measure cell. Injections of 10 μL ligand solution into the protein containing cell were performed at time intervals of 210 s with a total of 25 injections. Analysis of the experimental data was performed using the Origin 5.0 program (Malvern Instruments, Malvern, UK) and fitted by a model of one binding site. Binding parameters such as stoichiometry (n) and the association constant (KA) were determined by this fitting.

[5] = target: T5, CfamOBP1 (Canis lupus familiaris, UniProt O18873); experiment: Fluorescence competitive binding assay (1,8-ANS displacement); conditions: 2 μM OBP, 10 μM 1,8-ANS, 20° C., pH 7.5, odorant 0.5-20 μM
T5 construct: His tag (from pQE31 vector) (N); made in house; host or cells: E. coli M15 (plasmid pQE31)
Procedure: as §1, with “software. […]” for “software.”
(§4) Odorants were prepared in 100% MeOH and aliquots were added to final concentrations of 0.5-20 μM. […] The obtained data were then traced and analysed using SigmaPlot 12.5 software.

[6] = target: T6, CfamOBP1-L52 (variant of Seq ID No 14) (Canis lupus familiaris, UniProt O18873, S52L); experiment: as above; conditions: 2 μM OBP, 10 μM 1,8-ANS, 20° C., pH 7.5, odorant 0.5-20 μM
T6 construct: His tag (from pQE31 vector) (N); made in house; host or cells: E. coli M15 (plasmid pQE31)
T6 sequence (O18873 19-174 S52L): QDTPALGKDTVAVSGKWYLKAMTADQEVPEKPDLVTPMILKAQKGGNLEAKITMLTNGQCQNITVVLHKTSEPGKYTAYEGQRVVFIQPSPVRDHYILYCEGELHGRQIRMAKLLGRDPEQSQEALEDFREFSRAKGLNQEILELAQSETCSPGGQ
Procedure: as §1, with “software. […]” for “software.”
as §4

T5 sequence (O18873 19-174): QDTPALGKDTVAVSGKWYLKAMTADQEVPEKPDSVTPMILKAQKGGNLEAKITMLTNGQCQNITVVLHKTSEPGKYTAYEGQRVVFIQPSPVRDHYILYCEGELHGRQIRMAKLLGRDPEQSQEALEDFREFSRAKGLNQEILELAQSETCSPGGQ

displacement of the fluorescent probe [1]: able to displace the probes
displacement of the fluorescent probe [2]: able to displace the probes
SMILES: CC(C)CCCC(C)CCO (stereo not drawn) [DMO, 3,7-dimethyl-1-octanol]

displacement of the fluorescent probe [3]: able to displace the probes
change of Ka value (affinity) versus CfamOBP3 [4]: eight fold increase
SMILES: COc1nccnc1CC(C)C [IBMP, 2-isobutyl-3-methoxypyrazine]

displacement of the fluorescent probe [5]: able to displace the probes
displacement of the fluorescent probe [6]: able to displace the probes
SMILES: CC(C)=CCCC(C)CC=O (stereo not drawn) [citronellal]
